Data as given in patent US20050209278A1, “Piperidinyl- and piperazinyl-sulfonylmethyl hydroxamic acids and their use as protease inhibitors” (priority 2002, published 2005).
Counter-ions that a name gives are not always drawn.

molecular target: T1, MMP-1 (Homo sapiens, UniProt P03956); experiment: In vitro MMP inhibition, IC50 determination (fluorogenic substrate I); type: biochemical; conditions: values in parenthesis; 4 μM substrate I; room temperature
T1 construct: made in house; host or cells: MMP-1-transfected HT-1080 cells (spent media)
T1 sequence (P03956 100-469): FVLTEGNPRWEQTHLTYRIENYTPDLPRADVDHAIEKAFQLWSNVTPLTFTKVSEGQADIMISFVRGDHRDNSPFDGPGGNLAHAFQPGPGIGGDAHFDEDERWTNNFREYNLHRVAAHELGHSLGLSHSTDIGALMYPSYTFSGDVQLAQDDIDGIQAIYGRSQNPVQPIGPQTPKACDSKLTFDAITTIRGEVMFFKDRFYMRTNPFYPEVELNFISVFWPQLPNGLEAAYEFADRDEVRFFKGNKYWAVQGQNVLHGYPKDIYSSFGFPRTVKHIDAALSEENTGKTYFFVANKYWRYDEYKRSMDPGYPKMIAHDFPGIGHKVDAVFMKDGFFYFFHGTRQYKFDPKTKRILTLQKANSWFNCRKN
Protocol: Several hydroxamic acids and salts thereof were analyzed in in vitro assays to determine their ability to inhibit the MMP cleavage of peptide substrates. […] and IC50 constants were calculated from the assayed hydroxamic acid-MMP interactions. Human recombinant MMP-1, MMP-2, MMP-9, MMP-13, and MMP-14 were used in this assay. All enzymes were prepared in Assignee's laboratories following usual laboratory procedures. Protocols for the preparation and use of these enzymes are available in the scientific literature. See, e.g., Enzyme Nomenclature (Academic Press, San Diego, Calif., 1992) (and the citations therein). See also, Freije et al., “Molecular cloning and expression of collagenase-3, a novel human matrix metalloproteinase produced by breast carcinomas,” J Biol. Chem., 269(24), 16766-16773 (1994). The MMP-1 proenzyme was purified from the spent media of MMP-1-transfected HT-1080 cells provided by Dr. Harold Welgus of Washington University (St. Louis, Mo.). The protein was purified on a zinc chelating column. All MMPs were activated using 4-aminophenylmercuric acetate (“APMA”, Sigma Chemical, St. Louis, Mo.) or trypsin. MMP-9 also was activated using human recombinant MMP-3 (purified in Assignee's laboratory following standard cloning and purification techniques). […] Substrate (I) was purchased from Baychem (Redwood City, Calif.), and substrate II was prepared Assignee's laboratory. Substrate I was used in the IC50 determination assays, while substrate II was used in the Ki determination assays. In the absence of MMP inhibitory activity, either substrate is cleaved at the Gly-Leu peptide bond. […] The stock solutions of the assayed hydroxamic acids (or salts thereof) were prepared in 1% dimethyl sulfoxide (DMSO). […] The experiment controls contained the same amount of Buffer A/DMSO as the assayed sample, but contained no hydroxamic acid (or salt thereof). The assays from which the IC50 determinations were made were performed as follows. […] Louis, Mo.). The assayed hydroxamic acid samples were incubated in MicrofluorTM White Plates (Dynatech, Chantilly, Va.) and analyzed on a Perkin Elmer […] plate reader (Norwalk, Conn.). The excitation wavelength was 328 nm, and the emission wavelength-415 nm. […] As stated in the previous paragraph, samples containing varying concentrations of the same assayed hydroxamic acid were prepared. Inhibition was measured as a reduction in fluorescent intensity as a function of MMP inhibitor concentration. […] All values in Table 2 are given in nM units. The IC50 measurements are in parenthesis.

IC50, > 10 µM:
CCCCc1ccc(N2CCN(S(=O)(=O)C3(C(=O)NO)CCN(CCOC)CC3)CC2)cc1 [Example 5, 4-{[4-(4-butylphenyl)piperazin-1-yl]sulfonyl}-N-hydroxy-1-(2-methoxyethyl)piperidine-4-carboxamide Dihydrochloride]
CCCCCc1ccc(N2CCN(S(=O)(=O)C3(C(=O)NO)CCN(CCOC)CC3)CC2)cc1 [Example 6, N-Hydroxy-1-(2-methoxyethyl)-4-{[4-(4-pentylphenyl)piperazin-1-yl]sulfonyl}piperidine-4-carboxamide Dihydrochloride]
O=C(NO)C1(S(=O)(=O)N2CCN(c3ccc(OCC4CC4)c(F)c3)CC2)CCN(C2CC2)CC1 [Example 10, 1-cyclopropyl-4-[[4-[4-(cyclopropylmethoxy)-3-fluorophenyl]-1-piperazinyl]sulfonyl]-N-hydroxy-4-piperidinecarboxamide, dihydrochloride]
CCCCOc1ccc(N2CCN(S(=O)(=O)C3(C(=O)NO)CCN(CCOC)CC3)CC2)cc1F [Example 11, 4-[[4-(4-butoxy-3-fluorophenyl)-1-piperazinyl]sulfonyl]-N-hydroxy-1-(2-methoxyethyl)-4-piperidinecarboxamide, Dihydrochloride]
CCCCCc1ccc(C2CCN(S(=O)(=O)C3(C(=O)NO)CCN(CCOC)CC3)CC2)cc1 [Example 15, N-hydroxy-1-(2-methoxyethyl)-4-{[4-(4-pentylpheyl)piperidin-1-yl]sulfonyl}piperidine-4-carboxamide Hydrochloride]
